“And” between values parts separate entries of the source, which are not always exact repeats. Identical values can stand only once. Like-named read-outs stand apart in the source and are kept apart here.
Tests used:
DU145-TXR cells = assay: MTT viability assay, reversal of MDR (re-sensitization to paclitaxel) in P-gp overexpressing DU145-TXR cells; assay type: cell-based, human; details: for viability at 15 µM: Homo sapiens, 15 µM Compound Alone
Outline: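 MTT viability testing was done on P-gp overexpressing, multidrug resistant DU145-TXR human prostate cancer cells. They were kept in 10 nM paclitaxel and seeded at 3,000 cells per well in complete RPMI. Cells were exposed to compound, with or without paclitaxel, for 48 hours. MTT was then added for 4 hours, formazan was dissolved in DMSO, and absorbance was read at 570 nm. Survival was expressed relative to control-treated cells.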

P-gp = target: T1, P-gp (Homo sapiens, UniProt P08183); assay: Top Hit classification from combined in vitro criteria; details: reverse MDR, do not increase PTX toxicity in chemo-sensitive cancer cells, non-toxic to noncancerous cells, not P-gp substrates
T1 construct: The MDR, P-gp overexpressing DU145-TXR cells were maintained under positive selection pressure; endogenous in cells; host or cells: DU145-TXR (paclitaxel-resistant sub-line of DU145 human prostate cancer cells)
T1 sequence (P08183 whole entry): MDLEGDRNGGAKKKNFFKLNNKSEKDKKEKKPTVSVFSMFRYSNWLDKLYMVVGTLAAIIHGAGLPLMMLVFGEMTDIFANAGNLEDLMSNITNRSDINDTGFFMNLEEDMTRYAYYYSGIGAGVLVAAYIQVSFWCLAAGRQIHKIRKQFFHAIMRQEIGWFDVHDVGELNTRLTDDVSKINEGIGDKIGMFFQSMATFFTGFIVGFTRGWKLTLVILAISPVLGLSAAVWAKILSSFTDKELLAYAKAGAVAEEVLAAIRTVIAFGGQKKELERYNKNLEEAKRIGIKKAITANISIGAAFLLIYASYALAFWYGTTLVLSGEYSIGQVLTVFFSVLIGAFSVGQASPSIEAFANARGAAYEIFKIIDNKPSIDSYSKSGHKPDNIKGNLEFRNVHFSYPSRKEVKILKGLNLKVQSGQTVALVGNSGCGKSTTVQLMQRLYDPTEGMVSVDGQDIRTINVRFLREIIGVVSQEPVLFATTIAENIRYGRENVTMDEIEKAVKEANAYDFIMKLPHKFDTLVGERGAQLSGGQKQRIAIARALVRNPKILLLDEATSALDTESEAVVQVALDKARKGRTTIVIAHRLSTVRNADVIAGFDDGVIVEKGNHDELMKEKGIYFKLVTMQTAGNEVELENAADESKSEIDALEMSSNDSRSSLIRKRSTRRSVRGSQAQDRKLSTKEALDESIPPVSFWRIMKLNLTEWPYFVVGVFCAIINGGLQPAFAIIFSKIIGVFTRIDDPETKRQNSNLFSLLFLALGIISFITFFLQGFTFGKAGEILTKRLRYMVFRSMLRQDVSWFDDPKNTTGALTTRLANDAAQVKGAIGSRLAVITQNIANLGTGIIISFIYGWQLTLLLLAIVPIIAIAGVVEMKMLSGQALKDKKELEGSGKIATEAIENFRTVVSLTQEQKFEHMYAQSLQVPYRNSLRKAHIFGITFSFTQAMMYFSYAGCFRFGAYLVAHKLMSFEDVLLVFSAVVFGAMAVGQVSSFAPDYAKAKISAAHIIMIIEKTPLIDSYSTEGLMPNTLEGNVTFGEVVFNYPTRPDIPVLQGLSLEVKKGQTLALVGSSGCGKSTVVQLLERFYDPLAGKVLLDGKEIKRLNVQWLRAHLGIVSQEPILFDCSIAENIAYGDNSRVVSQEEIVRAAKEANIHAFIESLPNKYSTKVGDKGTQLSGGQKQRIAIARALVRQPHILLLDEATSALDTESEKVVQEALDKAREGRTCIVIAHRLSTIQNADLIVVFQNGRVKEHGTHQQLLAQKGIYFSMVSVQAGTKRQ

A2780-ADR cells = assay: MTT viability assay, reversal of MDR in P-gp overexpressing A2780-ADR cells; assay type: cell-based, human; details: for % Survival (individual sample): single samples (trials 1-3, samples 1-4)
Outline: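 Viability was assessed by MTT reduction (absorbance 570 nm, 4 h MTT) after 48 h compound treatment, alone or with chemotherapeutic, of parental A2780 or P-gp-overexpressing A2780-ADR cells seeded at 3,000 per well. Percent survival relative to DMSO-treated or DMSO-plus-chemotherapeutic controls.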

O=C(c1nc(-c2ccccn2)no1)N1CCN(c2nsc3ccccc23)CC1 [Compound 124, O=C(N1CCN(CC1)c1nsc2ccccc12)c1nc(no1)-c1ccccn1]
% Survival, mean (DU145-TXR cells; 15 µM compound + 500 nM PTX (Paclitaxel, Taxol), DU145-TXR, mean of 8 samples): 75.6% | % Survival (DU145-TXR cells; 15 µM compound + 500 nM PTX (Paclitaxel, Taxol), DU145-TXR, trial 1, sample 1): 62% | % Survival (DU145-TXR cells; 15 µM compound + 500 nM PTX (Paclitaxel, Taxol), DU145-TXR, trial 1, sample 2): 72% | % Survival (DU145-TXR cells; 15 µM compound + 500 nM PTX (Paclitaxel, Taxol), DU145-TXR, trial 1, sample 3): 95% | % Survival (DU145-TXR cells; 15 µM compound + 500 nM PTX (Paclitaxel, Taxol), DU145-TXR, trial 1, sample 4): 73% | % Survival (DU145-TXR cells; 15 µM compound + 500 nM PTX (Paclitaxel, Taxol), DU145-TXR, trial 2, sample 1): 91% | % Survival (DU145-TXR cells; 15 µM compound + 500 nM PTX (Paclitaxel, Taxol), DU145-TXR, trial 2, sample 2): 86% | % Survival (DU145-TXR cells; 15 µM compound + 500 nM PTX (Paclitaxel, Taxol), DU145-TXR, trial 2, sample 3): 67% | % Survival (DU145-TXR cells; 15 µM compound + 500 nM PTX (Paclitaxel, Taxol), DU145-TXR, trial 2, sample 4): 58% | Re-sensitization of DU145-TXR cells to PTX (reversal of MDR) (DU145-TXR cells; 15 µM compound with or without 500 nM PTX, 48 h, MTT, re-sensitization = 30% or greater decrease in cell viability): re-sensitized DU145-TXR cells to PTX | viability at 15 µM (DU145-TXR cells; DU145-TXR, mean of 8 samples, read-out: % Survival, mean): 98.6% | viability at 15 µM (DU145-TXR cells; DU145-TXR, trial 1, sample 1, read-out: % Survival): 96% | viability at 15 µM (DU145-TXR cells; DU145-TXR, trial 1, sample 2, read-out: % Survival): 102% | viability at 15 µM (DU145-TXR cells; DU145-TXR, trial 1, sample 3, read-out: % Survival): 79% | viability at 15 µM (DU145-TXR cells; DU145-TXR, trial 1, sample 4, read-out: % Survival): 95% | viability at 15 µM (DU145-TXR cells; DU145-TXR, trial 2, sample 1, read-out: % Survival): 114% | viability at 15 µM (DU145-TXR cells; DU145-TXR, trial 2, sample 2, read-out: % Survival): 94% | viability at 15 µM (DU145-TXR cells; DU145-TXR, trial 2, sample 3, read-out: % Survival): 103% | viability at 15 µM (DU145-TXR cells; DU145-TXR, trial 2, sample 4, read-out: % Survival): 106% | Top Hit (P-gp): No | Reversal of MDR in A2780-ADR cells (A2780-ADR cells; 15 µM compound with or without 500 nM PTX, 48 h, MTT): reversed MDR in A2780-ADR cells | Mean % Survival (A2780-ADR cells; A2780-ADR cells, 15 µM compound + 500 nM PTX, mean of 12 samples): 52.5% | % Survival (individual sample) (A2780-ADR cells; A2780-ADR cells, 15 µM compound + 500 nM PTX): 58% | % Survival (individual sample) (A2780-ADR cells; A2780-ADR cells, 15 µM compound alone): 94% and 91% | viability at 15 µM (A2780-ADR cells; Homo sapiens, A2780 ADR, A2780-ADR cells, 15 µM compound alone, mean of 12 samples, read-out: Mean % Survival): 92.5%
